The record followed here is US10568879B2 (GALAPAGOS NV, priority 2015, dated 2020).

Structures are written as SMILES.

The target of the assay is T1, GPR84 (Homo sapiens, UniProt Q9NQS5).
T1 construct: expressed in transfected cells
T1 sequence (Q9NQS5 whole entry): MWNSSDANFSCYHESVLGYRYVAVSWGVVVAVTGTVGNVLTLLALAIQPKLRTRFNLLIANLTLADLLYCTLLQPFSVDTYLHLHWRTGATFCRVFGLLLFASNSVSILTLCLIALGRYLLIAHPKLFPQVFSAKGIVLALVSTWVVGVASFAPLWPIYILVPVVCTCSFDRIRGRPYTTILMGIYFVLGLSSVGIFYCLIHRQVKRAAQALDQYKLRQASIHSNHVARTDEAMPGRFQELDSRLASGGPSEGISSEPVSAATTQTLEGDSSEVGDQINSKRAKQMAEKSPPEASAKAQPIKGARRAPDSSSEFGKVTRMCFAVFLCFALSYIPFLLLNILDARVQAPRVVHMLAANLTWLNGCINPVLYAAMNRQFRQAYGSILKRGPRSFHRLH
Briefly: GPR84 [35S]GTPγS binding assay. As to conditions: 3,3′-diindolylmethane at EC80; membranes from stable cell line over expressing GPR84. Type of assay: biochemical. On the procedure:
The following assay can be used for determination of GPR84 activation. The [^35S]GTPγS binding assay measures the level of G protein activation following agonist occupation of a GPCR, by determining the binding of the non-hydrolysable analog [^35S]GTPγS to Gα subunits.
The assay is performed in a 96-well plate where the following reagents are added. First 50 μL compound is added into the assay plate, followed by addition of 20 μL 3,3′-diindolylmethane at EC80 concentration (concentration which gives 80% of the activity of GPR84). Then, 30 μL of a mixture consisting of membranes-GTPγS-SpA beads is added [mixture consists of 20 μg/well membranes derived from stable cell line over expressing GPR84 (membranes are pre-incubated with 0.1 μM GDP for 15 min at 4° C.), 0.1 nM [^35S]GTPγS (Perkin Elmer, NEG030) and 0.5 mg/well PVT-WGA SpA beads (Perkin Elmer, RPNQ0001)]. All components are diluted in assay buffer containing 20 mM Tris pH 7.5; 5 mM MgCl2; 250 mM NaCl; 0.05% BSA; 75 μg/mL saponin. After an incubation of 90 min at room temperature, 20 μL CsCl2 0.8 M (MP Biomedicals, 02150589) is added, followed by centrifugation at 2000 rpm during 20 min. Plates are read on a topcount reader (perkin elmer) immediately after centrifugation (readout time, 1 min/well).
Take `COc1cc2c(cc1OC)-c1c(C)c(=O)cc(NCC3CCCO3)n1CC2` (centres unmarked) [Compound 2, 9,10-dimethoxy-1-methyl-4-(tetrahydrofuran-2-ylmethylamino)-6,7-dihydrobenzo[a]quinolizin-2-one]: the 50% inhibitory concentration (IC50) is > 1000 nM.

As to `CCc1c2n(c(NCC3CCCO3)cc1=O)CCc1cc(O)ccc1-2` (centres unmarked) [Compound 3, 1-ethyl-9-hydroxy-4-(tetrahydrofuran-2-ylmethylamino)-6,7-dihydrobenzo[a]quinolizin-2-one], the concentration for half-maximal inhibition (IC50) is > 1000 nM.

For `COc1cc2c(cc1OC)-c1cc(=O)cc(NCC3COCCO3)n1CC2` (centres unmarked) [Compound 5, 4-[([1,4]Dioxan-2-ylmethyl)-amino]-9,10-dimethoxy-6,7-dihydro-pyrido[2,1-a]isoquinolin-2-one], the concentration for half-maximal inhibition (IC50) is > 1000 nM.

`Cc1c2n(c(OCC3CCCO3)cc1=O)CCc1cc(OCC3CCCOC3)ccc1-2` (centres unmarked) [Compound 47, 1-methyl-4-(tetrahydrofuran-2-ylmethoxy)-9-(tetrahydropyran-3-ylmethoxy)-6,7-dihydrobenzo[a]quinolizin-2-one] displayed an IC50 of 0.01 to 100 nM.

On to `Cc1c2n(c(OCC3CCCO3)cc1=O)CCc1cc(OCCN(C)C)ccc1-2` (centres unmarked) [Compound 53, 9-(2-dimethylaminoethyloxy)-1-methyl-4-(tetrahydrofuran-2-ylmethoxy)-6,7-dihydrobenzo[a]quinolizin-2-one], for which the IC50 is > 1000 nM.

For the molecule `Cc1c2n(c(OCC3CCCCO3)cc1=O)CCc1cc(OCCN(C)C)ccc1-2` (centres unmarked) [Compound 54, 9-(2-dimethylaminoethyloxy)-1-methyl-4-(tetrahydropyran-2-ylmethoxy)-6,7-dihydrobenzo[a]quinolizin-2-one], the concentration for half-maximal inhibition (IC50) fell in the range of 500 to 1000 nM.

As to `Cc1c2n(c(OC[C@@H]3COCCO3)cc1=O)CCc1cc(OCCN(C)C)ccc1-2` [Compound 55, 9-(2-dimethylaminoethyloxy)-4-[[(2S)-1,4-dioxan-2-yl]methoxy]-1-methyl-6,7-dihydrobenzo[a]quinolizin-2-one], the IC50 lay within 500 to 1000 nM.

In the case of `Cc1c2n(c(OC[C@@H]3COCCO3)cc1=O)CCc1cc(OS(C)(=O)=O)ccc1-2` [Compound 56, [4-[[(2S)-1,4-dioxan-2-yl]methoxy]-1-methyl-2-oxo-6,7-dihydrobenzo[a]quinolizin-9-yl] methanesulfonate], the 50% inhibitory concentration (IC50) lay within 100 to 500 nM.

`Cc1c2n(c(OC[C@@H]3CCCO3)cc1=O)CCc1cc(OCc3ccccn3)ccc1-2` [Compound 57, 1-methyl-9-(2-pyridylmethoxy)-4-[[(2S)-tetrahydrofuran-2-yl]methoxy]-6,7-dihydrobenzo[a]quinolizin-2-one] showed an IC50 of 0.01 to 100 nM.

In the case of `Cc1c2n(c(OC[C@@H]3COCCO3)cc1=O)CCc1cc(OC(F)F)ccc1-2` [Compound 59, 9-(difluoromethoxy)-4-[[(2S)-1,4-dioxan-2-yl]methoxy]-1-methyl-6,7-dihydrobenzo[a]quinolizin-2-one], the IC50 lay in the range of 0.01 to 100 nM.

`Cc1c2n(c(OC[C@@H]3COCCO3)cc1=O)CCc1cc(OC[C@@H]3COCCO3)ccc1-2` [Compound 62, 4,9-bis[[(2S)-1,4-dioxan-2-yl]methoxy]-1-methyl-6,7-dihydrobenzo[a]quinolizin-2-one] registered a 50% inhibitory concentration (IC50) of 0.01 to 100 nM.

`Cc1c2n(c(OC[C@@H]3COCCO3)cc1=O)CCc1cc(Sc3ccccc3)ccc1-2` [Compound 64, 4-[[(2S)-1,4-dioxan-2-yl]methoxy]-1-methyl-9-phenylsulfanyl-6,7-dihydrobenzo[a]quinolizin-2-one]: the IC50 is 0.01 to 100 nM.

In the case of `Cc1c2n(c(OC[C@@H]3COCCO3)cc1=O)CCc1cc(N3CCNCC3)ccc1-2` [Compound 66, 4-[[(2S)-1,4-dioxan-2-yl]methoxy]-1-methyl-9-piperazin-1-yl-6,7-dihydrobenzo[a]quinolizin-2-one], the half-inhibitory concentration (IC50) was > 1000 nM.

In turn, `Cc1c2n(c(OC[C@@H]3COCCO3)cc1=O)CCc1cc(S(=O)(=O)c3ccccc3)ccc1-2` [Compound 67, 9-(benzenesulfonyl)-4-[[(2S)-1,4-dioxan-2-yl]methoxy]-1-methyl-6,7-dihydrobenzo[a]quinolizin-2-one] displayed an IC50 of 100 to 500 nM.

The molecule `Cc1c2n(c(OC[C@@H]3COCCO3)cc1=O)CCc1cc(N3CCN(S(C)(=O)=O)CC3)ccc1-2` [Compound 68] gave a half-maximal inhibitory concentration (IC50) of 0.01 to 100 nM.

Turning to `Cc1c2n(c(OC[C@@H]3COCCO3)cc1=O)CCc1cc(N(C)C(=O)C3CC3)ccc1-2` [Compound 73, N-[4-[[(2S)-1,4-dioxan-2-yl]methoxy]-1-methyl-2-oxo-6,7-dihydrobenzo[a]quinolizin-9-yl]-N-methyl-cyclopropanecarboxamide], the concentration for half-maximal inhibition (IC50) lay in the range of 100 to 500 nM.

Molecule `Cc1c2n(c(OC[C@@H]3COCCO3)cc1=O)CCc1cc(C3=CCN(C(=O)OC(C)(C)C)CC3)ccc1-2` [Compound 74, tert-butyl 4-[4-[[(2S)-1,4-dioxan-2-yl]methoxy]-1-methyl-2-oxo-6,7-dihydrobenzo[a]qunolizin-9-yl]-3,6-dihydro-2H-pyridine-1-carboxylate] registered a half-maximal inhibitory concentration (IC50) of 0.01 to 100 nM.

For the molecule `Cc1c2n(c(OC[C@@H]3COCCO3)cc1=O)CCc1cc(C3CCN(C(=O)OC(C)(C)C)CC3)ccc1-2` [Compound 75, tert-butyl 4-[4-[[(2S)-1,4-dioxan-2-yl]methoxy]-1-methyl-2-oxo-6,7-dihydrobenzo[a]quinolizin-9-yl]piperidine-1-carboxylate], the concentration for half-maximal inhibition (IC50) was in the range of 0.01 to 100 nM.

`Cc1c2n(c(OC[C@@H]3COCCO3)cc1=O)CCc1cc(C(=O)NC3CC3)ccc1-2` [Compound 84, N-cyclopropyl-4-[[(2S)-1,4-dioxan-2-yl]methoxy]-1-methyl-2-oxo-6,7-dihydrobenzo[a]quinolizine-9-carboxamide]: the half-inhibitory concentration (IC50) is > 1000 nM.

`Cc1c2n(c(OC[C@@H]3COCCO3)cc1=O)CCc1cc(O)ccc1-2` [Compound 85, 4-[[(2S)-1,4-dioxan-2-yl]methoxy]-9-hydroxy-1-methyl-6,7-dihydrobenzo[a]quinolizin-2-one] had an IC50 of 100 to 500 nM.

`Cc1c2n(c(OC[C@@H]3COCCO3)cc1=O)CCc1cc(N3CC4(COC4)C3)ccc1-2` [Compound 87, 4-[[(2S)-1,4-dioxan-2-yl]methoxy]-1-methyl-9-(6-oxa-2-azaspiro[3.3]heptan-2-yl)-6,7-dihydrobenzo[a]quinolizin-2-one] registered an IC50 of 500 to 1000 nM.

For `Cc1c2n(c(OC[C@@H]3COCCO3)cc1=O)CCc1cc(C(=O)N(C)C3CC3)ccc1-2` [Compound 88, N-cyclopropyl-4-[[(2)S-1,4-dioxan-2-yl]methoxy]-N,1-dimethyl-2-oxo-6,7-dihydrobenzo[a]quinolizine-9-carboxamide], the IC50 was > 1000 nM.

As to `COc1ccc2c(c1)CCn1c(OC[C@@H]3COCCO3)cc(=O)c(C)c1-2` [Compound 89, 4-[[(2S)-1,4-dioxan-2-yl]methoxy]-9-methoxy-1-methyl-6,7-dihydrobenzo[a]quinolizin-2-one], the half-inhibitory concentration (IC50) lay in the range of 0.01 to 100 nM.

As for `Cc1c2n(c(OC[C@@H]3COCCO3)cc1=O)CCc1cc(N3CC(C(C)(C)O)C3)ccc1-2` [Compound 92, 4-[[(2S)-1,4-dioxan-2-yl]methoxy]-9-[3-(1-hydroxy-1-methyl-ethyl)azetidin-1-yl]-1-methyl-6,7-dihydrobenzo[a]quinolizin-2-one], the IC50 was in the range of 100 to 500 nM.

Molecule `Cc1c2n(c(OC[C@@H]3COCCO3)cc1=O)CCc1cc(N3CC(S(C)(=O)=O)C3)ccc1-2` [Compound 94, 4-[[(2S)-1,4-dioxan-2-yl]methoxy]-1-methyl-9-(3-methylsulfonylazetidin-1-yl)-6,7-dihydrobenzo[a]quinolizin-2-one] returned a half-inhibitory concentration (IC50) of 500 to 1000 nM.

In turn, `Cc1c2n(c(OC[C@@H]3COCCO3)cc1=O)CCc1cc(N3CC(C)(C)C3)ccc1-2` [Compound 96, 9-(3,3-dimethylazetidin-1-yl)-4-[[(2S)-1,4-dioxan-2-yl]methoxy]-1-methyl-6,7-dihydrobenzo[a]quinolizin-2-one] came in with an IC50 of 0.01 to 100 nM.

Molecule `COC(=O)C1CN(c2ccc3c(c2)CCn2c(OC[C@@H]4COCCO4)cc(=O)c(C)c2-3)C1` [Compound 97] showed a half-inhibitory concentration (IC50) of 100 to 500 nM.

For the molecule `Cc1c2n(c(OC[C@@H]3COCCO3)cc1=O)CCc1cc(-c3cccnc3)ccc1-2` [Compound 98, 4-[[(2S)-1,4-dioxan-2-yl]methoxy]-1-methyl-9-(3-pyridyl)-6,7-dihydrobenzo[a]quinolizin-2-one], the IC50 was 100 to 500 nM.

The molecule `Cc1c2n(c(OC[C@@H]3COCCO3)cc1=O)CCc1cc(-c3cccc(F)c3)ccc1-2` [Compound 99, 4-[[(2S)-1,4-dioxan-2-yl]methoxy]-9-(3-fluorophenyl)-1-methyl-6,7-dihydrobenzo[a]quinolizin-2-one] displayed a half-inhibitory concentration (IC50) of 0.01 to 100 nM.

`Cc1c2n(c(OC[C@@H]3COCCO3)cc1=O)CCc1cc(-c3ccncc3)ccc1-2` [Compound 100, 4-[[(2S)-1,4-dioxan-2-yl]methoxy]-1-methyl-9-(4-pyridyl)-6,7-dihydrobenzo[a]quinolizin-2-one]: the IC50 fell in the range of 0.01 to 100 nM.

Take `Cc1c2n(c(OC[C@@H]3COCCO3)cc1=O)CCc1cc(-c3ccccn3)ccc1-2` [Compound 101, 4-[[(2S)-1,4-dioxan-2-yl]methoxy]-1-methyl-9-(2-pyridyl)-6,7-dihydrobenzo[a]quinolizin-2-one]: the IC50 was 0.01 to 100 nM.

Take `Cc1cccnc1-c1ccc2c(c1)CCn1c(OC[C@@H]3COCCO3)cc(=O)c(C)c1-2` [Compound 102, 4-[[(2S)-1,4-dioxan-2-yl]methoxy]-1-methyl-9-(3-methyl-2-pyridyl)-6,7-dihydrobenzo[a]quinolizin-2-one]: the half-maximal inhibitory concentration (IC50) is 0.01 to 100 nM.

As usually defined, the IC50 is the concentration at which inhibition is half-maximal. The low end stands for inhibition by little substance, the high end for a need for much substance.
